Results: paper PMC2360206 (British Journal of Cancer, 2006)
Where “and” joins values, the source holds several entries; their conditions need not be identical. Identical values can stand only once. Like-named read-outs stand apart in the source and are kept apart here.

Tests used:
Cdk6 = details: background statement, no reference given; cited from earlier work
[1] = Phase I plasma pharmacokinetics in patients; assay type: in vivo, human; details: for Cmax / half-life / AUC(0-inf) / AUC(0-t) / Tmax: human, plasma
Method: For PK analysis, blood samples (approximately 8 ml each) were collected in tubes with lithium heparin anticoagulant at the following time points: pre-dose and 0.5, 1, 1.5, 2, 4, 8, 12 (pre-second dose), 13, 14 and 24 h (pre-dose if day 2) after dosing on both days 1 and 7 of the first cycle. The samples were then centrifuged at 3000 r.p.m at 4°C for 10 min, the plasma transferred to 2 ml cryovials and frozen at −70°C until analysis.
Pharmacokinetic (PK) analysis was performed using the trapezoidal method and log-linear regression. The following parameters were determined either by calculation or observation: the observed maximal concentration (Cmax), the time of observed maximal concentration (Tmax), the area under the concentration–time curve calculated by the trapezoidal rule (time 0 to last sample with a quantifiable concentration (AUC (0−tz)) and extrapolated to infinity (AUC(0−∞)), the terminal rate constant, by log-linear regression (λz) and the terminal half-life from λz. The value of AUC(0−∞) was considered unreliable if the terminal area beyond the last quantified sample was greater than 20% of the total AUC(0−∞). Pharmacokinetic (PK) data analysis was carried out using a noncompartmental analysis model with the aid of Kinetica (Innaphase Limited, Amersham, UK).

plasma proteins = tested on: plasma proteins; design: method as in Vita et al, 2005; details: primarily albumin; ref Vita et al, 2005; cited from earlier work
[2] = design: method as in Pierga et al, 2003; details: for 5 days, twice-daily oral schedule; ref Pierga et al, 2003; cited from earlier work
[3] = po, 100 mg, Day 1, 100 mg b.i.d. p.o. (n=3), mean, course 1
[4] = po, 100 mg, Day 1, 100 mg b.i.d. p.o. (n=3), median, course 1
[5] = po, 100 mg, Day 7, 100 mg b.i.d. p.o. (n=3), mean, course 1
[6] = po, 100 mg, Day 7, 100 mg b.i.d. p.o. (n=3), median, course 1
[7] = po, 200 mg, Day 1, 200 mg b.i.d. p.o. (n=6), mean, course 1
[8] = po, 200 mg, Day 1, 200 mg b.i.d. p.o. (n=6), median, course 1
[9] = po, 200 mg, Day 7, 200 mg b.i.d. p.o. (n=6), mean, course 1
[10] = po, 200 mg, Day 7, 200 mg b.i.d. p.o. (n=6), median, course 1
[11] = po, 800 mg, Day 1, 800 mg b.i.d. p.o. (n=12), mean, course 1
[12] = po, 800 mg, Day 1, 800 mg b.i.d. p.o. (n=12), median, course 1
[13] = po, 800 mg, Day 7, 800 mg b.i.d. p.o. (n=8), mean, course 1
[14] = po, 800 mg, Day 7, 800 mg b.i.d. p.o. (n=8), median, course 1

In the case of `CC[C@H](CO)Nc1nc(NCc2ccccc2)c2ncn(C(C)C)c2n1` [Seliciclib], the “Inhibition of Cdk6” value (Cdk6) is listed as “only a weak inhibitor”, the “mean maximum plasma concentration” value ([1]; highest dose level (800 mg)) is listed as “approximately 3 μg ml^−1” and the Cmax ([1]; oral, 800 mg, 800 mg dose level, read-out: mean Cmax) is listed as 3e+06 ng/mL and 10 µM. For the same compound, the half-life ([1]; oral, similar in all dose groups, read-out: terminal (elimination) half-life) was 2 to 5 h, the AUC(0-inf) [1, 3] was 1920 ng·h/mL and the AUC(0-t) [1, 3] was 1870 ng·h/mL. It also gave a Cmax ([1]; po, 100 mg, Day 1, 100 mg b.i.d. p.o. (n=3), mean, course 1, read-out: Cmax) of 248 ng/mL, a Tmax ([1]; po, 100 mg, Day 1, 100 mg b.i.d. p.o. (n=3), mean, course 1, read-out: Tmax (converted)) of 1.87 h and a half-life ([1]; po, 100 mg, Day 1, 100 mg b.i.d. p.o. (n=3), mean, course 1, read-out: t1/2) of 4.45 h. It also gave an AUC(0-inf) [1, 4] of 1500 ng·h/mL, an AUC(0-t) [1, 4] of 1370 ng·h/mL and a Cmax ([1]; po, 100 mg, Day 1, 100 mg b.i.d. p.o. (n=3), median, course 1, read-out: Cmax) of 134 ng/mL. The Tmax ([1]; po, 100 mg, Day 1, 100 mg b.i.d. p.o. (n=3), median, course 1, read-out: Tmax (converted)) was 1.02 h, the half-life ([1]; po, 100 mg, Day 1, 100 mg b.i.d. p.o. (n=3), median, course 1, read-out: t1/2) was 4.63 h and the AUC(0-inf) [1, 5] was 2890 ng·h/mL. It also gave an AUC(0-t) [1, 5] of 2860 ng·h/mL, a Cmax ([1]; po, 100 mg, Day 7, 100 mg b.i.d. p.o. (n=3), mean, course 1, read-out: Cmax) of 162 ng/mL and a Tmax ([1]; po, 100 mg, Day 7, 100 mg b.i.d. p.o. (n=3), mean, course 1, read-out: Tmax (converted)) of 3.17 h. The half-life ([1]; po, 100 mg, Day 7, 100 mg b.i.d. p.o. (n=3), mean, course 1, read-out: t1/2) was 4.47 h, the AUC(0-inf) [1, 6] was 3040 ng·h/mL and the AUC(0-t) [1, 6] was 3030 ng·h/mL. For the same compound, the Cmax ([1]; po, 100 mg, Day 7, 100 mg b.i.d. p.o. (n=3), median, course 1, read-out: Cmax) was 152 ng/mL, the Tmax ([1]; po, 100 mg, Day 7, 100 mg b.i.d. p.o. (n=3), median, course 1, read-out: Tmax (converted)) was 4 h and the half-life ([1]; po, 100 mg, Day 7, 100 mg b.i.d. p.o. (n=3), median, course 1, read-out: t1/2) was 3.9 h. The AUC(0-inf) [1, 7] was 3030 ng·h/mL, the AUC(0-t) [1, 7] was 2770 ng·h/mL and the Cmax ([1]; po, 200 mg, Day 1, 200 mg b.i.d. p.o. (n=6), mean, course 1, read-out: Cmax) was 179 ng/mL. The Tmax ([1]; po, 200 mg, Day 1, 200 mg b.i.d. p.o. (n=6), mean, course 1, read-out: Tmax (converted)) was 4.65 h, the half-life ([1]; po, 200 mg, Day 1, 200 mg b.i.d. p.o. (n=6), mean, course 1, read-out: t1/2) was 2.93 h and the AUC(0-inf) [1, 8] was 3840 ng·h/mL. For the same compound, the AUC(0-t) [1, 8] was 3080 ng·h/mL, the Cmax ([1]; po, 200 mg, Day 1, 200 mg b.i.d. p.o. (n=6), median, course 1, read-out: Cmax) was 80 ng/mL and the Tmax ([1]; po, 200 mg, Day 1, 200 mg b.i.d. p.o. (n=6), median, course 1, read-out: Tmax (converted)) was 2.78 h. For the same compound, the half-life ([1]; po, 200 mg, Day 1, 200 mg b.i.d. p.o. (n=6), median, course 1, read-out: t1/2) was 2.48 h, the AUC(0-inf) [1, 9] was 4250 ng·h/mL and the AUC(0-t) [1, 9] was 2930 ng·h/mL. The Cmax ([1]; po, 200 mg, Day 7, 200 mg b.i.d. p.o. (n=6), mean, course 1, read-out: Cmax) was 310 ng/mL, the Tmax ([1]; po, 200 mg, Day 7, 200 mg b.i.d. p.o. (n=6), mean, course 1, read-out: Tmax (converted)) was 1.03 h and the half-life ([1]; po, 200 mg, Day 7, 200 mg b.i.d. p.o. (n=6), mean, course 1, read-out: t1/2) was 13 h. The AUC(0-inf) [1, 10] was 3480 ng·h/mL, the AUC(0-t) [1, 10] was 3080 ng·h/mL and the Cmax ([1]; po, 200 mg, Day 7, 200 mg b.i.d. p.o. (n=6), median, course 1, read-out: Cmax) was 303 ng/mL. The Tmax ([1]; po, 200 mg, Day 7, 200 mg b.i.d. p.o. (n=6), median, course 1, read-out: Tmax (converted)) was 1 h, the half-life ([1]; po, 200 mg, Day 7, 200 mg b.i.d. p.o. (n=6), median, course 1, read-out: t1/2) was 3.8 h and the AUC(0-inf) [1, 11] was 53000 ng·h/mL. It also gave an AUC(0-t) [1, 11] of 52700 ng·h/mL, a Cmax ([1]; po, 800 mg, Day 1, 800 mg b.i.d. p.o. (n=12), mean, course 1, read-out: Cmax) of 3200 ng/mL and a Tmax ([1]; po, 800 mg, Day 1, 800 mg b.i.d. p.o. (n=12), mean, course 1, read-out: Tmax (converted)) of 2.95 h. The half-life ([1]; po, 800 mg, Day 1, 800 mg b.i.d. p.o. (n=12), mean, course 1, read-out: t1/2) was 3.65 h, the AUC(0-inf) [1, 12] was 57500 ng·h/mL and the AUC(0-t) [1, 12] was 57400 ng·h/mL. It also gave a Cmax ([1]; po, 800 mg, Day 1, 800 mg b.i.d. p.o. (n=12), median, course 1, read-out: Cmax) of 3160 ng/mL, a Tmax ([1]; po, 800 mg, Day 1, 800 mg b.i.d. p.o. (n=12), median, course 1, read-out: Tmax (converted)) of 2 h and a half-life ([1]; po, 800 mg, Day 1, 800 mg b.i.d. p.o. (n=12), median, course 1, read-out: t1/2) of 3.87 h. The AUC(0-inf) [1, 13] was 26600 ng·h/mL, the AUC(0-t) [1, 13] was 26500 ng·h/mL and the Cmax ([1]; po, 800 mg, Day 7, 800 mg b.i.d. p.o. (n=8), mean, course 1, read-out: Cmax) was 2770 ng/mL. It also gave a Tmax ([1]; po, 800 mg, Day 7, 800 mg b.i.d. p.o. (n=8), mean, course 1, read-out: Tmax (converted)) of 1.65 h, a half-life ([1]; po, 800 mg, Day 7, 800 mg b.i.d. p.o. (n=8), mean, course 1, read-out: t1/2) of 3.83 h and an AUC(0-inf) [1, 14] of 21300 ng·h/mL. The AUC(0-t) [1, 14] was 21300 ng·h/mL, the Cmax ([1]; po, 800 mg, Day 7, 800 mg b.i.d. p.o. (n=8), median, course 1, read-out: Cmax) was 2640 ng/mL and the Tmax ([1]; po, 800 mg, Day 7, 800 mg b.i.d. p.o. (n=8), median, course 1, read-out: Tmax (converted)) was 1.78 h. The half-life ([1]; po, 800 mg, Day 7, 800 mg b.i.d. p.o. (n=8), median, course 1, read-out: t1/2) was 3.48 h, the Tmax ([1]; po, all dose levels, oral, read-out: Tmax range (time to peak plasma concentrations)) was 1 to 4 h and the Tmax ([1]; po, all dose levels, oral, read-out: mean Tmax) was 2.55 h. The plasma clearance ([1]; patients, oral) was “greater than liver blood flow”, the “Bound to plasma proteins” value (plasma proteins) was 90% and the “Recommended phase II dose” value [2] was 2500 mg per day.
